In publication PMC7570662, “In Vivo Pharmacokinetic Analysis Utilizing Non-Targeted and Targeted Mass Spectrometry and In Vitro Assay against Transient Receptor Potential Channels of Maobushisaishinto and Its Constituent Asiasari Radix” (Molecules, 2020):

Columns and labels:
[1] = target: T1, human TRPA1 (Homo sapiens, UniProt O75762); assay: Ca2+ influx assay in TRPA1-expressing T-REx-293 cells; format: cell-based; details: for EC50: dose-response test, Ca2+ influx, read-out: EC50 Value against TRPA1; for activation at 10 µM: T-REx-293, read-out: % of Activation Compared to Positive Control against Each Subfamily of TRP Channel TRPA1
T1 construct: Each full-length human TRPA1, TRPV1, TRPV4, and TRPM8 coding regions were introduced into a pcDNA4/TO vector; expressed in transfected cells; host or cells: T-REx-293 cells (tetracycline-induced, pcDNA4/TO vector)
Protocol: (§1) Each full-length human TRPA1, TRPV1, TRPV4, and TRPM8 coding regions were introduced into a pcDNA4/TO vector (Thermo Fisher Scientific, Waltham, MA, USA) and transfected into T-REx-293 cells (Thermo Fisher Scientific) to obtain stable cell lines expressing human TRPA1, TRPV1, TRPV4, and TRPM8. Cells were cultured in DMEM with 10% FBS, 4 mmol/L L-glutamine, and penicillin/streptomycin.
(§2) Cells were suspended in medium with 1 µg/mL tetracycline and seeded in poly-D-lysine coated 96-well plate at 2.5 × 10^4 cells/well. After overnight culture, the cells were used for Ca^2+ influx assay.
(§3) The Ca^2+ influx assay was performed using a FLIPR Calcium 5 Assay Kit (Molecular Devices, Sunnyvale, CA, USA) according to previously reported methods with minor modifications. In brief, cells were incubated with 80 µL Ca^2+-chelating dye dissolved in assay buffer at pH 7.4 (Hanks’ Balanced Salt Solution containing 20 mmol/L of N-2-hydroxyethylpiperazine-N’-2-ethanesulfonic acid) at room temperature for 30 min. The plates were assayed using a FlexStation 3 Microplate Reader (Molecular Devices). The fluorescence intensity was traced entirely for 80 s. The baseline of fluorescence was measured for 20 s before adding 20 µL of test compound (final concentration, 10 µmol/L). The response was expressed as percentage activation using the relative fluorescence units (RFU) (% activation = 100 × ((RFUmax − RFUbaseline)/RFUbaseline) − 100). Furthermore, the activities of each test compound against several subfamilies of TRP channels were represented as the relative enhancement of Ca^2+ influx of each positive control, indicated as follows: 20 µmol/L of allyl isothiocyanate (an agonist of TRPA1), 2 µmol/L of capsaicin (an agonist of TRPV1), 4 µmol/L of GSK1016790A (an agonist of TRPV4), and 20 µmol/L of icilin (an agonist of TRPM8). The dose–response curve was fitted to the sigmoidal dose-response equation (top, the max response of each compound), and EC50 values were calculated using GraphPad Prism 7 software (GraphPad, San Diego, CA, USA).

[2] = target: T2, human TRPV4 (Homo sapiens, UniProt Q9HBA0); assay: Ca2+ influx assay in TRPV4-expressing T-REx-293 cells; format: cell-based; details: 10 µmol/L test compound, relative to 4 µmol/L GSK1016790A; for activation at 10 µM: T-REx-293, read-out: % of Activation Compared to Positive Control against Each Subfamily of TRP Channel TRPV4
T2 construct: Each full-length human TRPA1, TRPV1, TRPV4, and TRPM8 coding regions were introduced into a pcDNA4/TO vector; expressed in transfected cells; host or cells: T-REx-293 cells (tetracycline-induced, pcDNA4/TO vector)
Protocol: as §1, §2, §3

[3] = target: T3, human TRPM8 (Homo sapiens, UniProt Q7Z2W7); assay: Ca2+ influx assay in TRPM8-expressing T-REx-293 cells; format: cell-based; details: 10 µmol/L test compound, relative to 20 µmol/L icilin; for activation at 10 µM: T-REx-293, read-out: % of Activation Compared to Positive Control against Each Subfamily of TRP Channel TRPM8
T3 construct: Each full-length human TRPA1, TRPV1, TRPV4, and TRPM8 coding regions were introduced into a pcDNA4/TO vector; expressed in transfected cells; host or cells: T-REx-293 cells (tetracycline-induced, pcDNA4/TO vector)
Protocol: as §1, §2, §3

[4] = tested on: LPS-induced NO production in RAW264.7 cells; assay: LPS-induced NO production in RAW264.7 cells (Griess method); format: cell-based, mouse; details: LPS 3 µg/mL, 24 h, mean of two experiments
Protocol: The experimental methods and results about the measurement of extracellular NO production are described as following.
Mouse macrophage-like RAW264. 7 cells were obtained from the European Collection of Authenticated Cell Cultures and cultured in Dulbecco’s Modified Eagle Medium (DMEM) containing 10% fetal bovine serum (FBS). The cells were maintained at 37 °C in a humidified incubator with an […]
RAW264. 7 cells were seeded in 48-well plates (6.0 × 10^4 cells per well) and incubated overnight, and then, 1 or 10 µmol/L of test compounds and 3 µg/mL of lipopolysaccharide (LPS; from Escherichia coli 0111: B4, L3024; Sigma-Aldrich) were added into the medium. Following 24 h after addition, 100 µL of conditioned media were collected and mixed with equal volume of Griess reagent (G4410; Sigma-Aldrich), and the mixture was incubated at room temperature for 15 min. Finally, absorbance was determined at 540 nm wave. Nitrite concentrations were quantified using a calibration curve obtained from a dilute solution of NaNO2. […]
production at concentrations of 1 or 10 µmol/L.
Table S3. Effect of Asiasari Radix ingredients on LPS -induced NO production.
Test Compound (% of LPS Control)
Amide A: (2E,4E,8Z,10E)-N-isobutyl-2,4,8,10-dodecatetraenamide. Each test compound (1 or 10 µmol/L) and lipopolysaccharide (LPS, 3 µg/mL) were added into a culture of RAW264. 7 cells. Following 24 h of substance addition, nitric oxide (NO) released in the cell medium was measured by Griess method. Percentage of NO production was calculated using the following equation: (nitrite concentration after treatment with test compound and LPS/nitrite concentration after treatment with LPS only) × 100. Each value represents the mean of two independent experiments

[5] = 10 µmol/L test compound, relative to 20 µmol/L allyl isothiocyanate

T1 sequence (O75762 whole entry): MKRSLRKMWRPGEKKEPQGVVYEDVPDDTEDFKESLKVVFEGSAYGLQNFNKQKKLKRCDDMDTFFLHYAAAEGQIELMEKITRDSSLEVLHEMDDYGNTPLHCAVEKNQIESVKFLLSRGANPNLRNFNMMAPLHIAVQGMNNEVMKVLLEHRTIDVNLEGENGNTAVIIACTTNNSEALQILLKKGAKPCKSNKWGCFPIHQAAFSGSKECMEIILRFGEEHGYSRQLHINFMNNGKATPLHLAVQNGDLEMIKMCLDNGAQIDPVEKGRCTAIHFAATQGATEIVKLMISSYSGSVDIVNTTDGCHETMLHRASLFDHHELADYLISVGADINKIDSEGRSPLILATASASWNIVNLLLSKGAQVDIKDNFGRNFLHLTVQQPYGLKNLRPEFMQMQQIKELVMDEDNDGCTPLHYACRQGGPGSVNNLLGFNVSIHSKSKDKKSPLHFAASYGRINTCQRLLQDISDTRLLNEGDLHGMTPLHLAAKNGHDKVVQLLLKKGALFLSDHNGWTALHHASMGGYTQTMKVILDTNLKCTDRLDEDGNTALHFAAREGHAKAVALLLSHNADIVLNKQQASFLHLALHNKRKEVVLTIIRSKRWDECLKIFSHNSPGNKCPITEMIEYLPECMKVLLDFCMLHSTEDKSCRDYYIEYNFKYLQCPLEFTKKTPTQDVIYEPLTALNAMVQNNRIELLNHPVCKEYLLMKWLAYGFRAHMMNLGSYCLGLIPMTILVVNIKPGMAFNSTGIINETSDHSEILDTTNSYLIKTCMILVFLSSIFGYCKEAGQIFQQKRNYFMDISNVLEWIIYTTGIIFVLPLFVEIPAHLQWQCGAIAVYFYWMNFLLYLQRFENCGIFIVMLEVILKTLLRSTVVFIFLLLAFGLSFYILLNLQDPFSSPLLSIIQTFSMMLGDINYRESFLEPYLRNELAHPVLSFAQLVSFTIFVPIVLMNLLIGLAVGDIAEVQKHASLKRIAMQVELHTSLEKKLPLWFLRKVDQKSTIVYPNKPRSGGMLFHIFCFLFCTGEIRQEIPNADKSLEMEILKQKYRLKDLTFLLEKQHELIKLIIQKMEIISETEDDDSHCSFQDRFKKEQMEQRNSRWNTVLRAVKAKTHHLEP
T3 sequence (Q7Z2W7 whole entry): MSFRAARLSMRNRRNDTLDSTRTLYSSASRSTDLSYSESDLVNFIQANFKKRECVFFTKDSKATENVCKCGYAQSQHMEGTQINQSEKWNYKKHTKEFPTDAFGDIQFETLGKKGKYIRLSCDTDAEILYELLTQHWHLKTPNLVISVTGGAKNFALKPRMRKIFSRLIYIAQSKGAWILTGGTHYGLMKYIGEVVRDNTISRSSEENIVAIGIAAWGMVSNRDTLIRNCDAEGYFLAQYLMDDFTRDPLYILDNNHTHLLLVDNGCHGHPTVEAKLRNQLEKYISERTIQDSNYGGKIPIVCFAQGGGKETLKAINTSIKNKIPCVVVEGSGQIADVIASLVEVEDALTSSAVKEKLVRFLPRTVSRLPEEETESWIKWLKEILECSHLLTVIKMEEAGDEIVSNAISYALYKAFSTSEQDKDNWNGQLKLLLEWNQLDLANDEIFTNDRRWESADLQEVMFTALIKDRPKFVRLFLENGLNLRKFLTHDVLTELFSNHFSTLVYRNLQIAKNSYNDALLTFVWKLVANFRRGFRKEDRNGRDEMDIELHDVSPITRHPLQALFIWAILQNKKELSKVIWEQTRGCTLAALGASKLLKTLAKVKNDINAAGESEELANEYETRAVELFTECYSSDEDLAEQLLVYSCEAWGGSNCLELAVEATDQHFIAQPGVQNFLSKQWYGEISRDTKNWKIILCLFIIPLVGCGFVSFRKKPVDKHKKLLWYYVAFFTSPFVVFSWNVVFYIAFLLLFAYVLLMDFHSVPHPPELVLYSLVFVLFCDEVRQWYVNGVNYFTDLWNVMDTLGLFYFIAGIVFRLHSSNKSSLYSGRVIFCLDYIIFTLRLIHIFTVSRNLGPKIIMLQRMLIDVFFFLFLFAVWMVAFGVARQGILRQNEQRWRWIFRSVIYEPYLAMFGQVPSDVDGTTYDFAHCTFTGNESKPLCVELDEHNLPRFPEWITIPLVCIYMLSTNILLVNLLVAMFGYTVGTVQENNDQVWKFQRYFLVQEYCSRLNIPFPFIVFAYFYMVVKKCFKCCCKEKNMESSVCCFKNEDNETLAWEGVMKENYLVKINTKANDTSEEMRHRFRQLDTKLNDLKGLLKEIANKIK
T2 sequence (Q9HBA0 whole entry): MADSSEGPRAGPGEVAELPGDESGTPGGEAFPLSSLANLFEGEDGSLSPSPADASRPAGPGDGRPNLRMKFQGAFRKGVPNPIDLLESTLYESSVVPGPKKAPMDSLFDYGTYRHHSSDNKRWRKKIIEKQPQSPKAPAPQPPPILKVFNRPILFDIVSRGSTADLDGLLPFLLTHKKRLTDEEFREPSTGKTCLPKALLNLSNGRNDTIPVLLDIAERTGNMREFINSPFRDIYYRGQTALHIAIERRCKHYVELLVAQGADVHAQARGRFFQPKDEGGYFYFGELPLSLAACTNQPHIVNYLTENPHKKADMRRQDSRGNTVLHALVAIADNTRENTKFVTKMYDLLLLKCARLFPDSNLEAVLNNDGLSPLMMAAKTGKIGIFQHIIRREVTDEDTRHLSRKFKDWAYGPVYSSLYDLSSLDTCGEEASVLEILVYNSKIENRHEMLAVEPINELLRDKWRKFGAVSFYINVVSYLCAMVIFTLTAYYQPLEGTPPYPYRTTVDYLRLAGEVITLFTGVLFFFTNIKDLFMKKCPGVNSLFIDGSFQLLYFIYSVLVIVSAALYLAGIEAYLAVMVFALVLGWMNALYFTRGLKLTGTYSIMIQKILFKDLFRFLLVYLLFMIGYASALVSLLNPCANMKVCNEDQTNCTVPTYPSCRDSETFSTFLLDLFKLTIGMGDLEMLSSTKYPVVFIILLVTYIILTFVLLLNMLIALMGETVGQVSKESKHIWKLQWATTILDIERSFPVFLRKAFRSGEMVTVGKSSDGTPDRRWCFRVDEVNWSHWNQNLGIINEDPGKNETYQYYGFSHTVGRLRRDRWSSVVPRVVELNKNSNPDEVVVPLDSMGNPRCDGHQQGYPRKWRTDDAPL

Row | Compound | % of Activation Compared to Positive Control against Each Subfamily of TRP Channel TRPA1 [1, 5] | EC50 [1] | % of Activation Compared to Positive Control against Each Subfamily of TRP Channel TRPV4 [2] | % of Activation Compared to Positive Control against Each Subfamily of TRP Channel TRPM8 [3] | NO Production (% of LPS Control) ([4]; 1 µmol/L test compound) | NO Production (% of LPS Control) ([4]; 10 µmol/L test compound) | activation at 10 µM [1, 5] | activation at 10 µM [2] | activation at 10 µM [3]
1 | CCC(=O)c1cc2c(cc1OC)OCO2 [Methyl kakuol] | 49% | 270 nM | 0.9% | 2.8% | 102 % of LPS Control | 93 % of LPS Control | – | – | –
2 | C/C=C/C=C\CC/C=C/C=C/C(=O)NCC(C)C [Amide A, (2E,4E,8Z,10E)-N-isobutyl-2,4,8,10-dodecatetraenamide] | – | 470 nM | – | – | 92 % of LPS Control | 82 % of LPS Control | 96% | 2.7% | 6.1%
3 | c1cc2c(cc1[C@H]1OC[C@H]3[C@@H]1CO[C@H]3c1ccc3c(c1)OCO3)OCO2 [Asarinin, (−)-Asarinin] | – | 3100 nM | – | – | 99 % of LPS Control | 97 % of LPS Control | 106% | -0.1% | 1.4%
4 | c1cc2c(cc1[C@H]1OC[C@H]3[C@@H]1CO[C@@H]3c1ccc3c(c1)OCO3)OCO2 [Sesamin] | – | 2300 nM | – | – | 96 % of LPS Control | 78 % of LPS Control | 106% | -0.1% | -0.8%
